Assay results reported in US11845727B2, “Aldehyde and ketone derivatives of psilocybin and methods of using” (Enveric B[…] Inc., priority 2020, dated 2023).

How the values were obtained:
5-HT1A receptor = target: T1, 5-HT1A receptor (Homo sapiens, UniProt P08908); assay: cAMP-Glo assay with fixed forskolin in +5-HT1A cells (CHO-K1/5-HT1A/Gα15); type: cell-based; conditions: fixed (4 μM) forskolin; for luminescence as dosages of ligand decrease: +5HT1A cell culture, reduced luminescence = increased cAMP; for 5-HT1A receptor modulation (conclusion from cAMP/luminescence trend) / % cAMP levels as dosages of compound decrease: +5HT1A cell cultures
T1 construct: host or cells: CHO-K1 (co-expressing Gα15)
T1 sequence (P08908 1-422): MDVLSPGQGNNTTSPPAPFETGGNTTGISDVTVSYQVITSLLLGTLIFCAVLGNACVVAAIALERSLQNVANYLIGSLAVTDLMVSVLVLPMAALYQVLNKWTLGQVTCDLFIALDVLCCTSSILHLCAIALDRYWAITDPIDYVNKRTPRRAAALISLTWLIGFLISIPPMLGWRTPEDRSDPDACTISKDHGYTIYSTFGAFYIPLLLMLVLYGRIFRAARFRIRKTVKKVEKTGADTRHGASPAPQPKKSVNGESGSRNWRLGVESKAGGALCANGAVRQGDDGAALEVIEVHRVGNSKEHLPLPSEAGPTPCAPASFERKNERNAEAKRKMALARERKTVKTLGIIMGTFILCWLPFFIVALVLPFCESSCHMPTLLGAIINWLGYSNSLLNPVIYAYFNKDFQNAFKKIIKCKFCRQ
Text: (§1) CHO-K1/Gα15 (GenScript, M00257) (−5-HT1A) and CHO-K1/5-HT1A/Gα15 (GenScript, M00330) (+5-HT1A) cells lines were used. Briefly, CHO-K1/Gα15 is a control cell line that constitutively expresses Gα15 which is a promiscuous Gq protein. This control cell line lacks any transgene encoding 5-HT1A receptors, but still responds to forskolin; thus, cAMP response to forskolin should be the same regardless of whether or not 5-HT1A agonists are present. Conversely, CHO-K1/5-HT1A/Gα15 cells stably express 5-HT1A receptor in the CHO-K1 host background. […] In +5-HT1A cells, Gα15 may be recruited in place of Gαi/o, which could theoretically dampen cAMP response (Rojas and Fiedler 2016, Front Cell Neurosci 10: 272). […] In contrast, tryptophan is not known to activate, or modulate in any way, 5-HT1A receptors, and was thus used as a negative control. Cells were maintained in complete growth media as recommended by supplier (GenScript) which is constituted as follows: Ham's F12 Nutrient mix (HAM's F12, GIBCO #11765-047) with 10% fetal bovine serum (FBS) (Thermo Scientific #12483020), 200 μg/ml zeocin (Thermo Scientific #R25005) and/or 100 μg/ml hygromycin (Thermo Scientific #10687010). The cells were cultured in a humidified incubator with 37° C. and 5% CO2. Cells maintenance was carried out as recommended by the cell supplier. Briefly, vials with cells were removed from the liquid nitrogen and thawed quickly in 37° C. water bath. Just before the cells were completely thawed the vial's outside was decontaminated by 70% ethanol spray. The cell suspension was then retrieved from the vial and added to warm (37° C.) complete growth media, and centrifuged at 1,000 rpm for 5 minutes. The supernatant was discarded, and the cell pellet was then resuspended in another 10 ml of complete growth media, and added to the 10 cm cell culture dish (Greiner Bio-One #664160). The media was changed every third day until the cells were about 90% confluent. The ˜90% confluent cells were then split 10:1 for maintenance or used for experiment.
As 5-HT1A activation inhibits cAMP formation, the ability of test molecules to modulate the 5-HT1A receptor response was measured via changes in the levels of cAMP produced due to application of 4 μM forskolin. The change in intracellular cAMP levels due to the treatment of novel molecules was measured using cAMP-Glo Assay kit (Promega # V1501). Briefly, +5-HT1A cells were seeded on 1-6 columns and base −5-HT1A cells were seeded on columns 7-12 of the white walled clear bottom 96-well plate (Corning, #3903). Both cells were seeded at the density of 30,000 cells/well in 100 μl complete growth media and cultured 24 hrs in humidified incubator at 37° C. and 5% CO2. On the experiment day, the media of cells was replaced with serum/antibiotic free culture media. Then the cells were treated for 20 minutes with test molecules dissolved in induction medium (serum/antibiotic free culture media containing 4 μM forskolin, 500 μM IBMX (isobutyl-1-methylxanthine, Sigma-Aldrich, Cat. #17018) and 100 μM (RO 20-1724, Sigma-Aldrich, Cat. #68279)). Forskolin induced cAMP formation whereas IBMX and RO 20-1724 inhibited the degradation of cAMP. PKA was added to the lysate, mixed, and subsequently the substrate of the PKA was added. PKA was activated by cAMP, and the amount of ATP consumed due to PKA phosphorylation directly corresponded to cAMP levels in the lysate. Reduced ATP caused reduced conversion of luciferin to oxyluciferin, conferring diminished luminescence as the result of 5-HT1A activation. Conversely, enhanced luminescence was expected in cases where 5-HT1A receptor modulation—imparted by a test molecule—caused downstream increases in ATP, thus imparting enhanced conversion of luciferin to oxyluciferin.

[1] = system: CHO-K1/Gα15 (−5-HT1A) cells; assay: cAMP-Glo assay with fixed forskolin in −5-HT1A control cells (CHO-K1/Gα15); type: cell-based; conditions: fixed (4 μM) forskolin
Text: as §1
As 5-HT1A activation inhibits cAMP formation, the ability of test molecules to modulate the 5-HT1A receptor response was measured via changes in the levels of cAMP produced due to application of 4 μM forskolin. The change in intracellular cAMP levels due to the treatment of novel molecules was measured using cAMP-Glo Assay kit (Promega # V1501). […] Reduced ATP caused reduced conversion of luciferin to oxyluciferin, conferring diminished luminescence as the result of 5-HT1A activation. Conversely, enhanced luminescence was expected in cases where 5-HT1A receptor modulation—imparted by a test molecule—caused downstream increases in ATP, thus imparting enhanced conversion of luciferin to oxyluciferin.

5-HT2A receptor = target: T2, 5-HT2A receptor (Homo sapiens, UniProt P28223); assay: [3H]ketanserin competition binding assay (SPA) at the 5-HT2A receptor; conditions: fixed (1 nM) [3H]ketanserin, membranes containing 5-HT2A
T2 construct: purchased PerkinElmer ES-313-M400UA
Text: Evaluation of drug binding is an essential step to characterization of all drug-target interactions (Fang 2012, Exp Opin Drug Discov 7:969). The binding affinity of a drug to a target is traditionally viewed as an acceptable surrogate of its in vivo efficacy (Núñez et al., 2012, Drug Disc Today 17: 10). Competition assays, also called displacement or modulation binding assays, are a common approach to measure activity of a ligand at a target receptor (Flanagan 2016, Methods Cell Biol 132: 191). In these assays, standard radioligands acting either as agonists or antagonists are ascribed to specific receptors. […] After incubation, the samples were read on a MicroBeta 2 Microplate Counter (Perkin Elmer). […] Equilibrium binding constants for ketanserin (Kd) were determined from saturation binding curves using the ‘one-site saturation binding analysis’ method of GraphPad PRISM software (Version 9.2.0). […] Ki values were calculated from the competition displacement data using the competitive binding analysis from GraphPad PRISM software. […] Specific binding in counts per minute (cpm) was calculated by subtracting non-specific binding from total binding. Specific binding (pmol/mg) was calculated from pmol of [^3H]ketanserin bound per mg of protein in the assay. The Kd was calculated by fitting the data with the one-site binding model of PRISM software (version 9.2.0).

T2 sequence (P28223 whole entry): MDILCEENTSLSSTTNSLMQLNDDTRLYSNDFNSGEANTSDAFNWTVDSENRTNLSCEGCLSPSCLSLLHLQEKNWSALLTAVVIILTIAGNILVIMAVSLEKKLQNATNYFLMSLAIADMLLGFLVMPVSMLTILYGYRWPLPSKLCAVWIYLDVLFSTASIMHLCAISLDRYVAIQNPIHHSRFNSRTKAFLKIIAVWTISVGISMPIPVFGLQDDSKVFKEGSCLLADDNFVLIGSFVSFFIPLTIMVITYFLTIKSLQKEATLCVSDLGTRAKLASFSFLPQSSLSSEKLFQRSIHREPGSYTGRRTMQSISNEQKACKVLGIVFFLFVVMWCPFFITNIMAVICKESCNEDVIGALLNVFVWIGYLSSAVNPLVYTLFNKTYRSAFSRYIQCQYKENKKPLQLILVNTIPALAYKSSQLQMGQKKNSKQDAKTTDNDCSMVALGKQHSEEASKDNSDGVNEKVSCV

## CN(C)CCc1c[nH]c2ccccc12 [DMT]
5-HT1A receptor
  luminescence as dosages of ligand decrease: reduced luminescence
  5-HT1A receptor modulation (conclusion from cAMP/luminescence trend): 5-HT1A activity

## CCN(CC)CCc1c[nH]c2c(C=O)ccc(O)c12 [compound (VIII), N,N-diethyl-7-formyl psilocybin derivative]
5-HT1A receptor
  5-HT1A receptor modulation (conclusion from cAMP/luminescence trend): 5-HT1A modulation activity
  % cAMP levels as dosages of compound decrease: increased % cAMP levels
[1]
  trend of % cAMP levels with decreasing compound in −5HT1A cell cultures: not observed

## COc1ccc(C=O)c2[nH]cc(CCN)c12 [compound (X), 4-O-methyl-7-formyl psilocybin derivative]
5-HT1A receptor
  5-HT1A receptor modulation (conclusion from cAMP/luminescence trend): modulate 5-HT1A response
  % cAMP levels as dosages of compound decrease: decreased % cAMP levels
[1]
  trend of % cAMP levels with decreasing compound in −5HT1A cell cultures: not observed

## CCCCN(CCCC)CCc1c(C=O)[nH]c2cccc(OC)c12 [compound (XII)]
5-HT1A receptor
  5-HT1A receptor modulation (conclusion from cAMP/luminescence trend): 5-HT1A modulation activity
  % cAMP levels as dosages of compound decrease: decreased % cAMP levels
[1]
  trend of % cAMP levels with decreasing compound in −5HT1A cell cultures: not observed

## CN(C)CCc1c[nH]c2cccc(O)c12 [psilocin]
5-HT2A receptor
  competition binding curve at the 5-HT2A receptor: binding

## NCCc1c[nH]c2ccc(O)cc12 [serotonin]
5-HT1A receptor
  5-HT1A receptor modulation (conclusion from cAMP/luminescence trend): 5-HT1A binding activity
  % cAMP levels as dosages of compound decrease: increased % cAMP levels
[1]
  trend of % cAMP levels with decreasing compound in −5HT1A cell cultures: not observed

## N[C@@H](Cc1c[nH]c2ccccc12)C(=O)O [tryptophan]
5-HT2A receptor
  competition binding curve at the 5-HT2A receptor: no binding
5-HT1A receptor
  luminescence as dosages of ligand decrease: no trend in luminescence
  5-HT1A receptor modulation (conclusion from cAMP/luminescence trend): lack of 5-HT1A modulation
